Source: patent US10071965B2, “Pyridone FabI inhibitors and uses thereof” (priority 2015, dated 2018)
Converted amounts (≈) assume the structure as drawn. “And” between values parts separate entries of the source, which are not always exact repeats. Equal entries are not always repeated. Where two headings read alike, the source gives them in different places.

How the values were obtained:
saFabI [1] = target: T1, saFabI (Staphylococcus aureus (strain MRSA252), UniProt Q6GI75); assay: saFabI inhibition kinetics; assay type: biochemical
[2] = target: M. tuberculosis enoyl-ACP reductase InhA (Mycobacterium tuberculosis (strain ATCC 25618 / H37Rv), UniProt P9WGR1); assay: InhA inhibition kinetics; assay type: biochemical
S. aureus RN4220 = assay: MIC microbroth dilution, S. aureus RN4220; assay type: cell-based, Staphylococcus aureus; conditions: for MIC: Staphylococcus aureus
E. coli MG1655 ΔacrAB = assay: microbe, parasite or virus in culture; assay type: cell-based, Escherichia coli; conditions: for MIC: Escherichia coli
E. coli MG1655 = assay: MIC microbroth dilution, E. coli MG1655 with intact AcrAB efflux pump; assay type: cell-based, Escherichia coli; conditions: for MIC: Escherichia coli
F. tularensis LVS = assay: microbe, parasite or virus in culture; assay type: cell-based; conditions: Francisella tularensis
P. mirabilis ATCC35659 = assay: MIC microbroth dilution, P. mirabilis ATCC35659; assay type: cell-based; conditions: Proteus mirabilis
M. tuberculosis H37Rv = assay: MIC microbroth dilution, M. tuberculosis H37Rv; assay type: cell-based; conditions: Mycobacterium tuberculosis
B. pseudomallei Bp400 = assay: microbe, parasite or virus in culture; assay type: cell-based; conditions: Burkholderia pseudomallei
saFabI [3] = target: T1, saFabI; assay: Jump dilution assay with saFabI; assay type: biochemical
ecFabI = ecFabI (Escherichia coli (strain K12), UniProt P0AEK4); assay: ecFabI inhibition kinetics; assay type: biochemical
MRSA strain BAA1762 = assay: Neutropenic mouse thigh infection model; assay type: in vivo, Swiss Webster mice; conditions: for decrease of bacterial burden in the infected thigh: 100 mg/kg dose, MRSA BAA1762, neutropenic mouse
in vivo = conditions: female, ICR, mouse, ip
bpFabV = bpFabV (Burkholderia pseudomallei, UniProt Q63TE9); assay type: biochemical; conditions: read-out: Burkholderia pseudomallei IC50 (μM), bpFabV
YpFabV = YpFabV (Yersinia pestis, UniProt Q8Z9U1); assay: biochemical
[4] = system: PT166-resistant S. aureus RN4220 mutants; assay: microbe, parasite or virus in culture; assay type: cell-based; conditions: Staphylococcus aureus
[5] = target: Francisella tularensis FabI (Francisella tularensis subsp. tularensis (strain SCHU S4 / Schu 4), UniProt Q5NGQ3); assay: biochemical
bpFabI = bpFabI (Burkholderia pseudomallei, UniProt A0A0H3HP34); assay: biochemical
Bt38 = assay: microbe, parasite or virus in culture; assay type: cell-based; conditions: Burkholderia pseudomallei, read-out: Burkholderia pseudomallei MIC (μg/mL) Bt38
[6] = RN4220, S. aureus RN4220, Table 3, read-out: MIC (μm)
[7] = RN4220, S. aureus RN4220, read-out: MIC
[8] = read-out: MIC (μm), F. tularensis LVS, Table 3
[9] = M. tuberculosis H37Rv, Table 3, read-out: MIC (μm)
[10] = [S]/KS = 0.19, binds E-NAD+ binary complex, single point progress curve analysis, read-out: Ki^app
[11] = binds E-NAD+ binary complex, single point progress curve analysis, read-out: Ki
[12] = H37RV, 4-pyridones table, read-out: Mycobacterium tuberculosis MIC (μg/mL) H37Rv
[13] = Ki^app (nM), saFabI, [S]/KS = 2
[14] = Staphylococcus aureus Ki (in brackets under IC50), 2-pyridones table
[15] = RN4220, 2-pyridones table, read-out: Staphylococcus aureus MIC (μg/mL) RN4220
[16] = read-out: Francisella tularensis MIC (μg/mL) LVS, 2-pyridones table
[17] = H37RV, 2-pyridones table, read-out: Mycobacterium tuberculosis MIC (μg/mL) H37Rv

## Cc1c(N)cccc1Cn1ccc(OCCc2cccs2)cc1=O [CG400549, reference compound]
saFabI [1]; relative to PT173
  affinity improvement for saFabI: 1.5 fold
[2]
  Ki: 582 nM
S. aureus RN4220; [6]
  MIC: 5.9 µM
S. aureus RN4220; [7]
  MIC: 5.9 µM
E. coli MG1655 ΔacrAB; MG1655
  MIC: > 375 µM
E. coli MG1655 ΔacrAB; MG1655, read-out: MIC (μm)
  MIC: > 375 µM
E. coli MG1655; E. coli versus S. aureus, Table 3
  lower antibacterial activity: > 64 fold
E. coli MG1655; E. coli MG1655, Table 3, read-out: MIC (μm)
  MIC: > 375 µM
F. tularensis LVS; [8]
  MIC: 5.9 µM
P. mirabilis ATCC35659; P. mirabilis ATCC35659, read-out: MIC (μm)
  MIC: > 750 µM
M. tuberculosis H37Rv; [9]
  MIC: > 300 µM
B. pseudomallei Bp400; BP400, read-out: MIC (μm)
  MIC: 376 µM
saFabI [3]; preincubation with NADPH and saFabI
  off kinetics in jump dilution curve: rapid off kinetics

## CCCCCCc1ccc(Oc2ccccc2)c(O)c1 [PT04, 5-hexyl-2-phenoxyphenol, reference compound]
ecFabI; [10]
  Ki: 32.2 nM
ecFabI; [11]
  Ki: 0.2 nM
E. coli MG1655 ΔacrAB; MG1655
  MIC: 14.8 µM (≈ 4 µg/mL)
MRSA strain BAA1762
  decrease of bacterial burden in the infected thigh: 0.9 log cfu/g tissue
In vivo; 200 mg/kg
  AUC(0-t): 11800 ng·h/mL
  Cmax: 5100 ng/mL
  Tmax: 60 min
  half-life: 270 min

## Oc1cc(Cl)ccc1Oc1ccccc1 [PT52]
ecFabI; [10]
  Ki: 26.9 nM
ecFabI; [11]
  Ki: 0.1 nM
E. coli MG1655 ΔacrAB; MG1655
  MIC: 0.1 µM (≈ 0.0221 µg/mL)
saFabI [3]; preincubation with NADP+ and saFabI, jump dilution, read-out: residence time tR
  residence time: 30 min

## CCCCCCc1cc(=O)c(Oc2ccc(N)cc2)cn1C [PT157]
[2]
  IC50: 424 nM
M. tuberculosis H37Rv; [12]
  MIC: 50 µg/mL
bpFabV
  IC50: 1 µM and 0.87 µM
YpFabV
  IC50: 130 nM

## CCCCCCc1cc(=O)c(Oc2ccccc2C)cn1C [PT166]
saFabI [1]; Ki (nM), saFabI
  Ki: 2.7 ± 0.6 nM
saFabI [1]; Ki, saFabI
  Ki: 2.7 nM
saFabI [1]; [13]
  Ki: 10.1 ± 2.1 nM
saFabI [1]; Staphylococcus aureus Ki (nM), 4-pyridones table
  Ki: 2.7 nM
ecFabI; Ki^app (nM), [S]/KS = 0.19
  Ki: 8.5 ± 0.2 nM
[2]
  IC50: 28.6 nM
  Ki: 22 nM
S. aureus RN4220; RN4220, 4-pyridones table, read-out: Staphylococcus aureus MIC (μg/mL) RN4220
  MIC: 0.24 µg/mL
S. aureus RN4220; [6]
  MIC: 0.8 µM
S. aureus RN4220; [7]
  MIC: 0.8 µM
S. aureus RN4220; RN4220, strain RN4220 (parent), Table 4, read-out: MIC μm
  MIC: 0.8 µM
S. aureus RN4220; RN4220, text, read-out: MIC against Staphylococcus aureus strain RN4220
  MIC: 0.24 µg/mL
E. coli MG1655 ΔacrAB; 4-pyridones table
  Escherichia coli MIC (μg/mL) MG1655 ΔacrAB: 2 µg/mL
E. coli MG1655 ΔacrAB; MG1655
  MIC: 6.7 µM (≈ 2.01 µg/mL)
E. coli MG1655 ΔacrAB; MG1655, read-out: MIC (μm)
  MIC: 6.7 µM (≈ 2.01 µg/mL)
E. coli MG1655 ΔacrAB; relative to CG400549
  lower MIC against E. coli MG1655 lacking AcrAB: > 50 fold
E. coli MG1655; MG1655, 4-pyridones table, in brackets, read-out: MIC for MG1655 with intact efflux pump
  MIC: > 128 µg/mL
E. coli MG1655; MG1655, Table 2 footnote e, read-out: MIC against E. coli MG1655 with the intact AcrAB efflux pump
  MIC: > 425 µM
F. tularensis LVS; [8]
  MIC: 0.4 µM
P. mirabilis ATCC35659; ATCC35659, read-out: MIC (μm)
  MIC: 214 µM (≈ 64 µg/mL)
M. tuberculosis H37Rv; [12]
  MIC: 3.13 µg/mL
M. tuberculosis H37Rv; H37RV, M. tuberculosis, read-out: MIC, in vitro anti-mycobacterial activity
  MIC: 10.5 µM
M. tuberculosis H37Rv; [9]
  MIC: 10.5 µM
B. pseudomallei Bp400; BP400, read-out: Burkholderia pseudomallei MIC (μg/mL) Bp400
  MIC: 64 µg/mL
B. pseudomallei Bp400; BP400, read-out: MIC (μm)
  MIC: 214 µM
[4]; read-out: MIC μm, strain 166R.1, FabI A95V
  MIC: 8.8 µM (≈ 2.63 µg/mL)
[4]; read-out: MIC μm, strain 166R.2, FabI A95V
  MIC: 8.8 µM (≈ 2.63 µg/mL)
[4]; read-out: MIC μm, strain 166R.3, FabI A95V and F252L
  MIC: 8.8 µM (≈ 2.63 µg/mL)
[4]; read-out: MIC μm, strain 166R.4, FabI A95V and E71D
  MIC: 8.8 µM (≈ 2.63 µg/mL)
[4]; read-out: MIC μm, strain 166R.5, no change in fabI
  MIC: 17.6 µM (≈ 5.27 µg/mL)
MRSA strain BAA1762
  decrease of bacterial burden in the infected thigh: 2.8 log cfu/g tissue
[5]
  IC50: 24 nM
In vivo; 100 mg/kg
  AUC(0-t): 53000 ng·h/mL
  Cmax: 45900 ng/mL
  Tmax: 15 min
  half-life: 162 min

## Cc1ccn(Cc2ccccc2Cl)c(=O)c1 [PT170]
saFabI [1]
  IC50: > 1000 nM
saFabI [1]; Ki (nM), saFabI
  Ki: 229 ± 5.2 nM
saFabI [1]; [13]
  Ki: 849 ± 19.3 nM
saFabI [1]; [14]
  Ki: 229 ± 5.2 nM
[2]
  IC50: > 1700 nM
S. aureus RN4220; [15]
  MIC: > 500 µg/mL
S. aureus RN4220; [7]
  MIC: > 500 µM
F. tularensis LVS; [16]
  MIC: 50 µg/mL
M. tuberculosis H37Rv; [17]
  MIC: > 50 µg/mL
[5]
  IC50: 202 ± 17 nM
bpFabI
  IC50: > 1000 nM

## CCCCCCc1ccn(Cc2ccccc2C)c(=O)c1 [PT171]
saFabI [1]
  IC50: 150 ± 22 nM
saFabI [1]; Ki (nM), saFabI
  Ki: 11.9 ± 1.8 nM
saFabI [1]; [13]
  Ki: 44.3 ± 6.6 nM
saFabI [1]; [14]
  Ki: 11.9 ± 1.8 nM
ecFabI; Ki^app (nM), [S]/KS = 0.19
  Ki: 116 ± 4.6 nM
[2]
  IC50: 130 ± 21 nM
S. aureus RN4220; [15]
  MIC: 5 µg/mL
F. tularensis LVS; [16]
  MIC: 3.65 µg/mL
M. tuberculosis H37Rv; [17]
  MIC: 25 µg/mL
Bt38
  MIC: 154 µg/mL (≈ 542 µM)
[5]
  IC50: 83 ± 32 nM
bpFabI
  IC50: ~400 nM

## CCCCCCc1ccn(Cc2ccccc2Cl)c(=O)c1 [PT172]
saFabI [1]
  IC50: 379 ± 88 nM
saFabI [1]; Ki (nM), saFabI
  Ki: 11 ± 0.4 nM
saFabI [1]; [13]
  Ki: 40.7 ± 1.3 nM
saFabI [1]; [14]
  Ki: 11 ± 0.4 nM
[2]
  IC50: 240 ± 44 nM
S. aureus RN4220; 2-pyridones table
  Staphylococcus aureus MIC (μg/mL) RN4220: 8 µg/mL
S. aureus RN4220; [15]
  MIC: 5 µg/mL
S. aureus RN4220; [7]
  MIC: 26.3 µM
F. tularensis LVS; [16]
  MIC: 4.04 µg/mL
M. tuberculosis H37Rv; [17]
  MIC: 25 µg/mL
Bt38
  MIC: 250 µg/mL (≈ 823 µM)
[5]
  IC50: 61 ± 13 nM
bpFabI
  IC50: 260 ± 9.3 nM

## CCCCCCc1ccn(Cc2cccc(N)c2C)c(=O)c1 [PT173]
saFabI [1]
  IC50: 68 ± 14 nM
saFabI [1]; Ki (nM), saFabI
  Ki: 2 ± 0.4 nM
saFabI [1]; Ki, saFabI
  Ki: 1.97 nM
saFabI [1]; [13]
  Ki: 7.3 ± 1.5 nM
saFabI [1]; [14]
  Ki: 2 ± 0.4 nM
ecFabI; Ki^app (nM), [S]/KS = 0.19
  Ki: 246 ± 10.1 nM
[2]
  IC50: > 3200 nM
S. aureus RN4220; [7]
  MIC: 6.7 µM
E. coli MG1655 ΔacrAB; 2-pyridones table
  Escherichia coli MIC (μg/mL) MG1655 ΔacrAB: >425 µg/mL
E. coli MG1655 ΔacrAB; MG1655
  MIC: > 425 µM
F. tularensis LVS; [16]
  MIC: 3.57 µg/mL
M. tuberculosis H37Rv; [17]
  MIC: 50 µg/mL
Bt38
  MIC: 36.3 µg/mL (≈ 122 µM)
[5]
  IC50: 83 ± 15 nM
bpFabI
  IC50: 460 ± 10 nM

## CCCCCCc1ccc(Oc2ccccc2)c(=O)[nH]1 [PT191]
saFabI [1]
  IC50: > 2000 nM
saFabI [1]; Ki (nM), saFabI
  Ki: 196 ± 22.2 nM
saFabI [1]; [13]
  Ki: 729 ± 82.4 nM
saFabI [1]; [14]
  Ki: 196 ± 22.2 nM
[2]; [I] = 2 μM, [E] = 100 nM
  Mycobacterium tuberculosis enzyme, inhibition: 10%
[5]
  IC50: > 10000 nM
bpFabI
  IC50: > 3000 nM

## CCCCCCc1ccn(Cc2ccc([N+](=O)[O-])cc2)c(=O)c1 [PT424]
saFabI [1]
  IC50: 1500 ± 200 nM
YpFabV
  Ki: 11 µM

## Cc1onc(-c2ccccc2)c1C(=O)N[C@@H]1C(=O)N2[C@@H]1SC(C)(C)[C@@H]2C(=O)O [oxacillin]
MRSA strain BAA1762; MRSA BAA1762, neutropenic mouse thigh, FIG. 8
  in vivo antibacterial efficacy: no in vivo antibacterial efficacy
